Assay results as given in US8809627B2, “Plant isoflavone and isoflavanone O-methyltransferase genes” (The Samuel Roberts Noble Foundation, Inc., priority 2006, dated 2014).
Where no end group is shown, it is not given here.

Columns and labels:
MtIOMT7 = assay: OMT assays with purified recombinant MtIOMT7 (relative activity; HPLC/MS of products); assay type: biochemical, Medicago truncatula; conditions: 50 μM S-adenosyl methionine, 100 μM acceptor substrate; most converted substrate = 100%
Source text: (§1) Cloning of MtIOMT5 (corresponding to TC 100926, TIGR MtGI v.8) was as described previously (Liu et al., 2005). To obtain a full-length cDNA for MtIOMT2, specific primers designed based upon the M. truncatula genomic sequence were used to amplify the MtIOMT2 coding sequence from M. truncatula root cDNA. The amplified product was cloned into the pGEM®-T easy vector (Promega, Madison Wis.) and sequenced to confirm its identity. MtIOMTs were cloned into the pET28a vector (EMD Biosciences, Inc., San Diego, Calif.) using PCR-based amplification with primers designed to introduce EcoRI and XhoI restriction sites; BamHI and XhoI sites were used for cloning MtIOMT6 due to the presence of an internal EcoRI site in this particular cDNA. Because the EST for MtIOMT8 was missing a start codon, the primer designed to clone MtIOMT8 into pET28a contained an additional 2-nucleotide insertion to generate an ATG start site. All MtIOMTs were expressed as translational fusions to an N-terminal His-tag. Expression of MtIOMTs in E. coli BL21(DE3) and purification by Ni^2+-NTA chromatography were as described (Zubieta et al., 2001). Proteins were dialyzed against 20 mM Tris pH 8.0, 100 mM NaCl, 10% (v/v) glycerol, and 14 mM β-mercaptoethanol. Protein concentration was determined by Bradford assay using BSA as a standard (Bradford, 1976).
(§2) Reactions (200 μl) were performed in 0.1 M potassium phosphate, pH 7.4, 10% (w/v) sucrose, 14 mM β-mercaptoethanol with 10 μM protein, 0.5 mM S-adenosyl-L-methionine, and 80 μM phenolic substrates. All substrates were purchased from Indofine (Hillsborough, N.J.) except 6,7-dihydroxy-4′-methoxyisoflavone, dihydrodaidzein, and vestitol, which were purchased from Apin (Oxfordshire, UK). […] OMT assays were incubated at 30° C. for 2 h and extracted with ethyl acetate. Ethyl acetate extracts were dried under N2 and the resultant material was resuspended in 50-100 μl of methanol. Samples were analyzed on an Agilent 1100 HPLC, equipped with a quaternary pump (model #G1311A), a degasser (model #G1322A), an autosampler (model #G1313A), and a diode array detector (model #G1315A). Samples of 20 μl were applied to an ODS2 reverse-phase column (5 μm particle size, 4.6×250 mm) and eluted in 1% (v/v) phosphoric acid with an increasing gradient of acetonitrile (0-5 min, 25%; 5-35 min, 25-50%; 35-39 min, 50-100%) at a flow rate of 1 ml/min. To resolve the 4′-O-methylated and 7-O-methylated products of genistein, samples were applied to a Phenomenex SYNERGI Polar-RP 80 Å column (4 μm particle size, 4.6×250 mm) and eluted in water with an increasing gradient of acetonitrile (0-5 min, 20%; 5-17 min, 20-38%; 17-33 min, 38%; 33-45 min, 38-56%; 45-46 min, 56-100%) at a flow rate of 1 ml/min. Chiral chromatography was performed as described (Liu et al., 2005).
(§3) For determination of specific activities, reactions (100 μl) were performed in 0.1 M potassium phosphate, pH 7.4, 10% (w/v) sucrose, 14 mM β-mercaptoethanol with 0.2-μg protein, 50 μM S-adenosyl-L-methionine (0.025 μCi ^14C-SAM per reaction), and 100 μM substrate. Reactions were incubated at 30° C. for 15-25 min and stopped by addition of 4 μl of 1N HCl. Products were extracted into 500 μl of ethyl acetate and 400 μl was used for liquid scintillation counting.
An HP 1100 series II LC system (Hewlett-Packard, Palo Alto, Calif.) with a photodiode array detector was coupled to a Bruker Esquire ion-trap mass spectrometer (ITMS) equipped with an electrospray ionization source. A reverse phase, C18, 5 μm, 4.6×250 mm column (J. T. Baker, Phillipsburg, N.J.) was used for separations. The mobile phase consisted of 0.1% (v/v) acetic acid using linear gradients of 5-90% acetonitrile (v/v) in 70 min. The flow rate was 0.8 ml/min, and the temperature of the column was kept at 28° C. Both positive- and negative-ion mass spectra were acquired.

MtIOMT5 = biological target: T1, MtIOMT5 (Medicago truncatula, UniProt Q29U70); assay: OMT assays with purified recombinant MtIOMT5 (relative activity; HPLC/MS of products); assay type: biochemical; conditions: for Position of methylation / reaction products, MtIOMT5: HPLC against standards, tandem MS
T1 construct: His-tag (N); made in house; host or cells: E. coli BL21(DE3)
T1 sequence (Q29U70 1-364): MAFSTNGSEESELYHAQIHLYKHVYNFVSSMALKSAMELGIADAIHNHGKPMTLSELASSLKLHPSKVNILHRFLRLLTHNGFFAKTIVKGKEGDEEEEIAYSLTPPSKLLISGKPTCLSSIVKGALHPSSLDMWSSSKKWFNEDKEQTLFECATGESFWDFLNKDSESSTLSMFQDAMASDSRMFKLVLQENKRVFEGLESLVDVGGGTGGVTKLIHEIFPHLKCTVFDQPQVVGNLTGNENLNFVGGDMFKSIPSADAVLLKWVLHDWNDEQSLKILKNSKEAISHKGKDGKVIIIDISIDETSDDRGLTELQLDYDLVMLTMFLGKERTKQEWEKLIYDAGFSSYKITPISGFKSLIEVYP
Source text: as §1, §2, §3
An HP 1100 series II LC system (Hewlett-Packard, Palo Alto, Calif.) with a photodiode array detector was coupled to a Bruker Esquire ion-trap mass spectrometer (ITMS) equipped with an electrospray ionization source. A reverse phase, C18, 5 μm, 4.6×250 mm column (J. T. Baker, Phillipsburg, N.J.) was used for separations. The mobile phase consisted of 0.1% (v/v) acetic acid using linear gradients of 5-90% acetonitrile (v/v) in 70 min. The flow rate was 0.8 ml/min, and the temperature of the column was kept at 28° C. Both positive- and negative-ion mass spectra were acquired. […]

MsI7OMT = biological target: T2, MsI7OMT (Medicago sativa, UniProt O24529); conditions: reported by He et al., 1998; cited from earlier work
T2 sequence (O24529 1-352): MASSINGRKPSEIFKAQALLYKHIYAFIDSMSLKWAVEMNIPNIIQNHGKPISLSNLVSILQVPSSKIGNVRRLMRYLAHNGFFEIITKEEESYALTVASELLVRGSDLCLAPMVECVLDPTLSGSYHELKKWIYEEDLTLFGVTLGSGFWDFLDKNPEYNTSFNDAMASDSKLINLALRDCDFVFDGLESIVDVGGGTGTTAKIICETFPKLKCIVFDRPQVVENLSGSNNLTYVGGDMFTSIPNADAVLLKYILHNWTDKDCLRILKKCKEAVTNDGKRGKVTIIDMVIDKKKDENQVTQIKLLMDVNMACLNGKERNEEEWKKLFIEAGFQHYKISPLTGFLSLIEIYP

[1] = Quantification of methylated products in reactions with dihydrodaidzein; assay type: biochemical
Experimental: as §2
An HP 1100 series II LC system (Hewlett-Packard, Palo Alto, Calif.) with a photodiode array detector was coupled to a Bruker Esquire ion-trap mass spectrometer (ITMS) equipped with an electrospray ionization source. A reverse phase, C18, 5 μm, 4.6×250 mm column (J. T. Baker, Phillipsburg, N.J.) was used for separations. The mobile phase consisted of 0.1% (v/v) acetic acid using linear gradients of 5-90% acetonitrile (v/v) in 70 min. The flow rate was 0.8 ml/min, and the temperature of the column was kept at 28° C. Both positive- and negative-ion mass spectra were acquired. Positive-ion ESI was performed using an ion source voltage of 4.0 KV and a capillary offset voltage of 86.0 V. Nebulization was aided with a coaxial nitrogen sheath gas provided at a pressure of 60 psi. Desolvation was aided using a counter current nitrogen flow set at a pressure of 12 psi and a capillary temperature of 300° C. Mass spectra were recorded over the range 50-2200 m/z. The ITMS was operated under an ion current control of approximately 10,000 with a maximum acquire time of 100 ms. Tandem mass spectra were obtained in manual mode for targeted masses using an isolation width of 2.0, fragmentation amplitude of 2.2 and threshold set at 6,000.
To determine the regio-specificity of methylation, reaction products were subjected to HPLC separation and identified by comparison to available standards, or subjected to tandem MS analysis (FIGS. 10-13; Table 4)

[2] = Specific activity of the purified IOMTs with the most converted substrate; assay type: biochemical; conditions: 50 μM S-adenosyl methionine, 100 μM acceptor substrate
Experimental: as §3

| Compound | Relative activity, MtIOMT7 (MtIOMT7) [%] | Relative activity, MtIOMT5 (MtIOMT5; 50 μM S-adenosyl methionine, 100 μM acceptor substrate, most converted substrate = 100%) [%] | Position of methylation / reaction products, MtIOMT5 (MtIOMT5) | Enantiomer methylated, MtIOMT5 (MtIOMT5; chiral HPLC of unreacted substrate) | Activity of MsI7OMT with 4′-methoxyisoflavones (in words) (MsI7OMT) | % 4′-Methylated [1] [%] | % 7-Methylated [1] [%] | % Dimethylated [1] [%] | Ratio 4′/7-methylated [1] | Specific activity at 100% [2] [pkat/mg] |
| --- | --- | --- | --- | --- | --- | --- | --- | --- | --- | --- |
| O=C1c2ccc(O)cc2OC(O)C1c1ccc(O)cc1 (stereo not drawn) [2,7,4′-trihydroxyisoflavanone] | 24.8 | 100 | exclusively methylated on the 4′-position | – | – | – | – | – | – | – |
| O=C1C[C@@H](c2ccc(O)cc2)Oc2cc(O)ccc21 [Liquiritigenin] | – | – | methylated on the 4′-positions | preferentially methylates the (2R)-enantiomer | – | – | – | – | – | – |
| COc1ccc(-c2coc3cc(O)cc(O)c3c2=O)cc1 [biochanin A] | – | – | – | – | little activity | – | – | – | – | – |
| MtIOMT1: M. truncatula isoflavonoid O-methyltransferase, His-tagged, expressed in E. coli; GenBank AY942159 (TYVGGDMFTSIPNADAVLLKYILHNWTDKDCTRILKKCKE; cysteine pairing not given here; also: His-tagged; listed as Medicago truncatula) | – | – | – | – | – | 0 | >99 | <1 | 0 | 3646.7 |
| MtIOMT2: M. truncatula isoflavonoid O-methyltransferase, His-tagged, expressed in E. coli; GenBank DQ419910 (NFVGGDMFKSVPSADAVLLKWVLHDWNDELCLKILKNCKE; His tag; listed as Medicago truncatula) | – | – | – | – | – | 33 | 66 | <1 | 0.5 | 930.2 |
| MtIOMT3: M. truncatula isoflavonoid O-methyltransferase, His-tagged, expressed in E. coli; GenBank DQ419911 (TYVGGDMFISVPKADAVLLKAVLHDWTDKDCIKILKKCKE; cysteine pairing not given here; also: His-tagged; listed as Medicago truncatula) | – | – | – | – | – | 92 | 8 | 0 | 11.4 | 7.4 |
